What all share (format): physicochemical
Data set [1] can be described thus: Critical micelle concentration via FRET (6-Fam/Atto647N-labeled motif 3). Conditions: room temperature. The method, then:
The critical micelle concentration (CMC) value of the trCLN3-L4 aggregates was determined by intermolecular Förster resonance energy transfer (FRET) experiments using a FRET pair of 6-Fam and Atto647N both attached to the 5′-end of the trCLN3-L4 motif 3. The FRET labels were attached at the 5′-end in immediate proximity to the lipid-modifications to ensure that intermolecular FRET effects report the formation of micellar nanoconstructs at a concentration above the critical micelle concentration.
In the FRET experiment, a series of nanoconstructs was self-assembled by mixing 6-Fam- and Atto647N-labeled motif 3 in 1:1 ratios in a concentration range between 0.035-15 μM (Table 2). […] The mixtures were transferred into a 384-well plate and the FRET effect was monitored at room temperature by using an excitation wave length of λex=480 nm and an emission wavelength of λem=669 nm using an EnSpire® Multimode Plate Reader (PerkinElmer).
The intensity signals were collected for both FRET channels at λem=669 nm for the acceptor channel and that of donor channel at λem=520 nm. […] The CMC value was determined from the intersection of the lower horizontal asymptote of the sigmoidal curve with the tangent at the inflection point corresponding to the minimum trCLN3-L4 concentration required for formation of stable micelles in aqueous medium. […]

Data set [2] can be described thus: Critical micelle concentration from pyrene fluorescence. Conditions: pyrene 100 μM. The method, then: Critical micelle concentration (CMC) value of the trCLN3-L4 motif was further confirmed by internalizing pyrene into the hydrophobic-lipid core of the micellar aggregate followed by measuring the fluorescence of pyrene-loaded trCLN3-L4 nanoconstructs at different concentrations. For this experiment a fixed amount of pyrene in acetone was transferred to an empty tube and acetone was allowed to evaporate in the dark at 45° C. for 30 min using an Eppendorf concentrator. trCLN3-L4 solutions in the concentration range between 0.0005-0.5 mg/ml were then added to yield a final pyrene concentration fixed at 100 μM for all reactions (Table 3). The solutions were incubated at 90° C. for 10 minutes in the dark and slowly cooled down to room temperature overnight at a rate of 1° C./10 min in order to internalize pyrene into the hydrophobic lipid core. The pyrene-loaded trCLN3-L4 nanoconstructs were transferred into a 384-multi well plate and the fluorescence emission spectrum of each well was recorded at room temperature by using an excitation wave length of 339 nm in an EnSpire® Multimode Plate Reader (PerkinElmer).
In close proximity, two pyrene molecules form an excimer that emits fluorescence at a longer wavelength compared to the monomer emission. The formed excimer is a dimeric complex where one molecule exists in an excited state and the other molecule in a ground state. Monomer emission of pyrene occurs within a range of 360-400 nm whereas the excimer emission is obtained within the wavelength limit of 465-500 nm. The critical micelle concentration was determined by the distinguishable pyrene excimer fluorescence of the corresponding DNA concentration. See G. Uddin G et al., Am. J. Biochem. Mol. Biol. 2013, 3, 175-181; which reference is incorporated herein in its entirety.

Data set [3] is described as follows: Atomic force microscopy (AFM) size of nanoconstructs. Conditions: Gaussian fit of at least 50 nanoconstructs. The method, then: All AFM images of the trCLN3-L4 and HyApNc aggregates were taken by using a Nanowizard III AFM (JPK instruments, Berlin) in tapping mode. ACTA probes with silicon tips were used for imaging in dry mode in air. A volume of 3 μL (5 mM) of a solution of magnesium acetate (MgAc2) in water was deposited on a freshly cleaved mica surface layer and allowed to incubate for 3 minutes and afterwards the surface was rinsed with 2×10 μL of milli-Q water and dried under air pressure. For imaging a volume of 3 μL of the trCLN3-L4/HyApNc solutions in ultra pure water were spotted on the pre-treated mica surface and allowed to incubate for 1 min. After 1 min incubation on the mica surface, the excess sample solution was gently shaken off and the mica surface was blown dry with air pressure and mounted to the AFM microscope for immediate imaging. […]
In a first step. we synthesized the lipid-modified phosphoramidite 1 with a C12-lipid chain incorporated at the 5-position of the uridine base (FIGS. 2A-B). […] We evaluated the CMC of the trCLN3-L4nanoconstructs using Forster resonance energy transfer (FRET; Example 3; FIGS. 6A-C; Table 2) and fluorescence studies with pyrene-loaded trCLN3-L4 nanoconstructs (FIGS. 7A-B; Table 3). […] The trCLN3-L4 3 nanoconstructs have an average diameter of 21.2±1.5 nm (FIG. 8C, upper panel), consistent with the size of 25 nm measured by TEM.

Data set [4] is described as follows: TEM size of trCLN3-L4 nanoconstructs. Conditions: negative stain electron microscopy. The method, then: The size and structure of the trCLN3-L4 nanoconstructs were analyzed by negative stain electron microscopy. Samples were prepared using negative staining. In brief, carbon coated grids (Quantifoil Micro Tools GmbH, Jena, Germany, 200 mesh) were glow discharged to render the surface hydrophilic prior to applying samples. 10 μL of an aqueous solution of trCLN3-L4 were applied to the grid. Afterwards excess solution was carefully blotted off using filter paper followed by 3 times washing with ddH2O. In the final step, grids were stained with negative staining reagent by placing them (plastic side down) on a 10 μL drop of freshly prepared 2% […] uranyl formiate aqueous staining solution. TEM micrographs were recorded using a JEOL JEM 2200 FS electron microscope (JEOL, Japan) operated at 200 kV. The size of the micelles measured on the TEM images could typically be observed in a range between 20 and 25 nm.

“And” between values parts separate entries of the source, which are not always exact repeats. Equal values may be shown once.

Take “trCLN3-L4: trCLN3 aptamer with four C12-lipid-modified dU residues at the 5′-end; self-assembles into micellar nanoconstructs (TGGATGGTAGCTCGGTCGGGGTGGGTGGGTTGGCAAGTCT; four 5' C12-lipid-modified dU residues, chemistry not fully specified)”: in data set [1] (FRET, aqueous medium), the “critical micelle concentration (CMC)” value was 300 nM and ~0.005 mg/ml. For the same substance, in data set [1] (both methods (FRET and pyrene fluorescence)), the CMC values was in the range of 300 to 350 nM. For the same substance, the I475/I373 is listed as 0.20 in data set [2] (trCLN3-L4 0.0005 mg/mL (0.035 μM)); 0.23 in data set [2] (trCLN3-L4 0.001 mg/mL (0.07 μM)); 0.72 in data set [2] (trCLN3-L4 0.0025 mg/mL (0.175 μM)); 1.98 in data set [2] (trCLN3-L4 0.005 mg/mL (0.35 μM)); 1.57 in data set [2] (trCLN3-L4 0.01 mg/mL (0.7 μM)); 2.49 in data set [2] (trCLN3-L4 0.025 mg/mL (1.75 μM)). In addition, the I475/I373 is 4.69 in data set [2] (trCLN3-L4 0.05 mg/mL (3.5 μM)), 5.13 in data set [2] (trCLN3-L4 0.1 mg/mL (7.0 μM)), 6.90 in data set [2] (trCLN3-L4 0.25 mg/mL (17.4 μM)) and 7.83 in data set [2] (trCLN3-L4 0.5 mg/mL (35 μM)). In addition, in data set [3], the average diameter turned out to be 21.2±1.5 nm. The “size measured by TEM” value in data set [4] is 25 nm.

(Values after US20240425867A1, “NUCLEIC ACID-BASED ASSEMBLY AND USES THEREOF” (Rheinische Friedrich-Wilhelms-Universität Bonn, priority 2016, published 2024).)
